From PMC13086964, “USP7 deubiquitinase stabilizes FAN1 to support DNA crosslink repair and suppress CAG repeat expansion” (Nature Communications, 2026)

Key:
Type in all cases: cell-based, human
HeLa cells = experiment: clonogenic survival assay, HeLa parental; settings: MMC 10, 20, and 40 ng/ml, 24 h, n=4
Protocol: HeLa and RPE-1 p53 KO cells were transfected with the indicated siRNA. The next day, the cells were seeded in six-well plates. The next day, the cells were treated with MMC for 24 h. Plates were then washed twice with 2 ml of PBS before adding fresh growth medium to the cells, that were then cultured for 13 days at 37 °C before fixation with crystal violet solution [0.5% crystal violet and 20% ethanol (w/v)]. For analysis, plates were scanned and analysed with the ImageJ Plugin ColonyArea using the parameter “intensity percent”. […]
the mean (dashed lines) are indicated. Representative images are shown (bottom). Scale bar: 10 μm. […]
Western blot analysis of HeLa cells depleted of the indicated factors. (E) Clonogenic survival assay of the HeLa cells depleted of the indicated factors (Ctrl: black circle; FANCD2: red square; USP7#1: inverted blue triangle; USP7#2: cyan triangle; RAD18: brown diamond) and exposed to increasing doses of MMC for 24 h. Viability of untreated cells was defined as 100%. Data are presented as the means ± SD of four biological replicates (n=4). Representative images are shown (left). (F) Western blot analysis of HeLa and HeLa FAN1 KO cells depleted of the indicated factors. […]

FAN1-USP7 = experiment: in situ proximity ligation assay (PLA), FAN1-USP7 association; settings: HeLa cells, MMC 150 ng/ml, 24 h
Protocol: HeLa parental and FAN1 KO cells were grown in the absence or presence of MMC (150 ng/ml) for 24 hours. Cells were pre-extracted with CSK buffer containing 0.5% of Triton™ X-100 (Sigma–Aldrich) for 5 min on ice and fixed in 4% formaldehyde in PBS (w/v) for 20 min at room temperature (RT). Coverslips were then washed with PBS and stored overnight at 4 °C. In situ PLA was performed using Duolink PLA technology (Sigma-Aldrich) according to the manufacturer’s instructions. In brief, coverslips were blocked for 30 min at 37 °C with blocking solution and then incubated with the respective primary antibodies for 2 h at 37 °C. Coverslips were washed three times for 5 min in Wash Buffer A (0.01 M Tris, 0.15 M NaCl, and 0.05% Tween 20). Then, Duolink anti-Mouse PLUS and anti-Rabbit MINUS PLA probes were coupled to the primary antibodies for 1 h at 37 °C. After three wash steps in Wash buffer A for 5 min, the PLA probes were ligated for 30 min at 37 °C. Coverslips were then washed three times for 5 min in Wash buffer A. Amplification using the “Duolink In Situ Detection Reagents FarRed” (Sigma-Aldrich) was performed at 37 °C for 100 min. […] Lastly, the coverslips were mounted using Vectashield Mounting Media (Vector Laboratories) containing DAPI, sealed and imaged on a Leica DMI 6000 fluorescence microscope at x63 magnification. […]

RPE-1 p53 KO cells = experiment: apoptosis: PARP-1 and caspase-3 cleavage, RPE-1 p53 KO; settings: RPE-1 p53 KO cells depleted of FAN1, USP7, or both, MMC 1 μg/ml, 48 h
Protocol: If not stated otherwise, cells were lysed in RIPA buffer (50 mM Tris-HCl, pH 7.5, 150 mM NaCl, 1% IGEPAL, 0.5% sodium deoxycholate, 0.1% SDS) supplemented with phosphatase inhibitors (20 mM NaF and 1 mM Na3VO4) and protease inhibitors (1 mM benzamidine and 0.1 mM PMSF), incubated with Benzonase (Merck) for at least 30 min at 4 °C, and clarified by centrifugation. Proteins were resolved by SDS-PAGE and transferred to nitrocellulose membranes. Immunoblots were performed with the indicated antibodies, and proteins were visualized using the Advansta WesternBright ECL reagent and the Fusion Solo S imaging system. Relative protein levels were determined by quantification of the protein of interest band intensity normalized to the loading control with the ImageJ software. […]
the mean (dashed lines) are indicated. Representative images are shown (bottom). Scale bar: 10 μm.
This experiment was repeated three times. (B) QIBC analysis of chromatin-bound GFP-FAN1 foci in U2OSGFP-FAN1 cells were concurrently mock-treated (-) or treated (+) with MMC (150 ng/ml) and either FT671 (10 µM) or GNE-6640 (10 µM) for 24 h. […] 24 h later, cells were either mock-treated (-) or treated (+) with MMC (1 μg/ml) for 48 h and whole-cell lysates were analysed by immunoblotting. […]
Relative FAN1 protein levels were determined by quantification of FAN1 band intensity (normalized to GAPDH) with the ImageJ software. […]

CO[C@@]12[C@H](COC(N)=O)C3=C(C(=O)C(C)=C(N)C3=O)N1C[C@@H]1N[C@@H]12 [MMC, Mitomycin C]
MMC sensitivity, RAD18 or FANCD2 depletion (HeLa cells): more pronounced effects
MMC sensitivity, USP7 depletion (HeLa cells; two independent USP7 siRNA): only a modest increase MMC sensitivity
PLA signals, FAN1-USP7 association (FAN1-USP7): significantly increased in numbers
apoptosis (cleavage of PARP-1 and caspase-3) (RPE-1 p53 KO cells): largely recapitulated
